Calls of active or inactive are those of the source.
Experiments:
[1] = molecular target: T1, Short transient receptor potential channel 4 (Mus musculus, UniProt Q9QUQ5); assay: calcium entry via TRPC4 opening agents – cell-based, HEK293 TRPC4/mu-opioid, Fluo-4 calcium, dose response (AID 434937); format: functional
T1 sequence (Q9QUQ5 whole entry): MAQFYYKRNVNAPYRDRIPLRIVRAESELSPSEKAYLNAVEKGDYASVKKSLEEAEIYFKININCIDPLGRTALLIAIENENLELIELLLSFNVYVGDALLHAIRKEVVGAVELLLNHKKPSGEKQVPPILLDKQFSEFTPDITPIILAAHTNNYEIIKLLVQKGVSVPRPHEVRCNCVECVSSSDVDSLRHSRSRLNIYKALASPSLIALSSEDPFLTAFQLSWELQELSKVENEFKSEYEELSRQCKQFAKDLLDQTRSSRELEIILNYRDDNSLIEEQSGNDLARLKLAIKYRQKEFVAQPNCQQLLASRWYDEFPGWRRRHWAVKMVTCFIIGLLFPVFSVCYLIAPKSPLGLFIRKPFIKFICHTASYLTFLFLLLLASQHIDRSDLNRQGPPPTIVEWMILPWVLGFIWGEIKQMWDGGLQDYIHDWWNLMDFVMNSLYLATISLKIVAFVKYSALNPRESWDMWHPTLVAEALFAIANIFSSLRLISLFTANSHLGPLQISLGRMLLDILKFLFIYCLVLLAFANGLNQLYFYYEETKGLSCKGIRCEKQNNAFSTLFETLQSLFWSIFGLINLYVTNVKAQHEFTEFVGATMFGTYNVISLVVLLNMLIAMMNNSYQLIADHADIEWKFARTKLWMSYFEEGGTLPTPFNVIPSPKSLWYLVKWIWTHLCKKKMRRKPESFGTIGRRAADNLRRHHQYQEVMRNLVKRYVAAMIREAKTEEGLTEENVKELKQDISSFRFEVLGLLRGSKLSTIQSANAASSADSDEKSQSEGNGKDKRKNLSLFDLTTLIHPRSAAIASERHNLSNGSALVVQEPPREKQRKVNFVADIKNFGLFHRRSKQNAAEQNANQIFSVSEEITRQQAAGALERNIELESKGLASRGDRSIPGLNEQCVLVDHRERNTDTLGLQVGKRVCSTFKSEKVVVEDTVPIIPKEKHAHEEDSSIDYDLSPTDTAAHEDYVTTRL

[2] = molecular target: Beta-2 adrenergic receptor (Homo sapiens, UniProt P07550); assay: ADRB2 activation measured by internalization – cell-based, FAP fluorogen, flow cytometry, cherry pick 1, dose response (AID 588763); format: functional
[3] = molecular target: Peroxisome proliferator-activated receptor gamma/Nuclear receptor coactivator 3 (Homo sapiens, UniProt P37231); assay: TR-FRET dose response biochemical High Throughput Screening assay for agonists of the steroid receptor coactivator 3 (SRC-3) recruitment by the peroxisome proliferator-activated receptor gamma (PPAR gamma): non-selective agonists. [Related pubchem assays: 1301 (Confirmation screen.), 1048 (Primary screen.)]; format: functional
[4] = molecular target: Peroxisome proliferator-activated receptor gamma/Nuclear receptor coactivator 2 (Homo sapiens, UniProt P37231); assay: (§1) TR-FRET dose response biochemical High Throughput Screening assay for agonists of the steroid receptor coactivator 2 (SRC-2) recruitment by the peroxisome proliferator-activated receptor gamma (PPAR gamma): non-selective agonists. [Related pubchem assays: 1297, 1032 ]; format: functional
[5] = molecular target: T2, RNA-binding protein pos-1 (Caenorhabditis elegans, UniProt G5EF15); assay: disruptors of C. elegans POS-1 RNA interaction – biochemical, fluorescence polarization, dose response (AID 1964);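 further: purified POS-1 fused to maltose binding protein made in E. coli; potency of compounds blocking POS-1 binding to fluorescent RNA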
T2 sequence (G5EF15 whole entry): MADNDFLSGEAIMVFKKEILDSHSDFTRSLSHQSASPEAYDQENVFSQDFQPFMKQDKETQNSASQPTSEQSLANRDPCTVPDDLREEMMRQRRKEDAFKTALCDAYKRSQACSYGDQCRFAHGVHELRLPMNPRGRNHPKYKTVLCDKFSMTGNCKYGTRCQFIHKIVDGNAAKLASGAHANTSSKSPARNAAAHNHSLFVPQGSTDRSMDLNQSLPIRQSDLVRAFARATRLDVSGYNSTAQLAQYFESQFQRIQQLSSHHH

[6] = molecular target: T3, Zinc finger protein mex-5 (Caenorhabditis elegans, UniProt Q9XUB2); assay: potency of MEX-5 RNA-binding blockers – biochemical, C. elegans, fluorescence polarization, dose response (AID 1960)
T3 sequence (Q9XUB2 whole entry): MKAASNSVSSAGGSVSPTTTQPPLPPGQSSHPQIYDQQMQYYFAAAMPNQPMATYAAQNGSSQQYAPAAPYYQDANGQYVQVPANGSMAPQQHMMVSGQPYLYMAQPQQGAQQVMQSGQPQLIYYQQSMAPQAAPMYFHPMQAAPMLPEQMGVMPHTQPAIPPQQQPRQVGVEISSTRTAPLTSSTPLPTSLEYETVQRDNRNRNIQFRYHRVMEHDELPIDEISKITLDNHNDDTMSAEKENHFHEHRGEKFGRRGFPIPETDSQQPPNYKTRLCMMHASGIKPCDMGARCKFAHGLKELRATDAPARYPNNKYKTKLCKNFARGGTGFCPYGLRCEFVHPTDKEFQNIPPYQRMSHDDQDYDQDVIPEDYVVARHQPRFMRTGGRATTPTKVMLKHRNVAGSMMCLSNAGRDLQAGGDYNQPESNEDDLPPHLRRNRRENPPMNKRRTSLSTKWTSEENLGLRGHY

[7] = molecular target: Peroxisome proliferator-activated receptor gamma/Nuclear receptor coactivator 1 (Homo sapiens, UniProt P37231); assay: as §1, with “1 (SRC-1)” for “2 (SRC-2)”, “assays (depositor defined):AID1300, AID1808, AID504735, AID631]” for “assays: 1297, 1032 ]”; format: protein assay
Phospholipase D1 = molecular target: T4, Phospholipase D1 (Homo sapiens, UniProt Q13393); assay: cellular phospholipase D1 inhibition IC50 – cell-based, dose response (AID 602151); format: functional;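 further: cellular PLD1 assay in Calu-1 cells stimulated with PMA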
T4 sequence (Q13393 whole entry): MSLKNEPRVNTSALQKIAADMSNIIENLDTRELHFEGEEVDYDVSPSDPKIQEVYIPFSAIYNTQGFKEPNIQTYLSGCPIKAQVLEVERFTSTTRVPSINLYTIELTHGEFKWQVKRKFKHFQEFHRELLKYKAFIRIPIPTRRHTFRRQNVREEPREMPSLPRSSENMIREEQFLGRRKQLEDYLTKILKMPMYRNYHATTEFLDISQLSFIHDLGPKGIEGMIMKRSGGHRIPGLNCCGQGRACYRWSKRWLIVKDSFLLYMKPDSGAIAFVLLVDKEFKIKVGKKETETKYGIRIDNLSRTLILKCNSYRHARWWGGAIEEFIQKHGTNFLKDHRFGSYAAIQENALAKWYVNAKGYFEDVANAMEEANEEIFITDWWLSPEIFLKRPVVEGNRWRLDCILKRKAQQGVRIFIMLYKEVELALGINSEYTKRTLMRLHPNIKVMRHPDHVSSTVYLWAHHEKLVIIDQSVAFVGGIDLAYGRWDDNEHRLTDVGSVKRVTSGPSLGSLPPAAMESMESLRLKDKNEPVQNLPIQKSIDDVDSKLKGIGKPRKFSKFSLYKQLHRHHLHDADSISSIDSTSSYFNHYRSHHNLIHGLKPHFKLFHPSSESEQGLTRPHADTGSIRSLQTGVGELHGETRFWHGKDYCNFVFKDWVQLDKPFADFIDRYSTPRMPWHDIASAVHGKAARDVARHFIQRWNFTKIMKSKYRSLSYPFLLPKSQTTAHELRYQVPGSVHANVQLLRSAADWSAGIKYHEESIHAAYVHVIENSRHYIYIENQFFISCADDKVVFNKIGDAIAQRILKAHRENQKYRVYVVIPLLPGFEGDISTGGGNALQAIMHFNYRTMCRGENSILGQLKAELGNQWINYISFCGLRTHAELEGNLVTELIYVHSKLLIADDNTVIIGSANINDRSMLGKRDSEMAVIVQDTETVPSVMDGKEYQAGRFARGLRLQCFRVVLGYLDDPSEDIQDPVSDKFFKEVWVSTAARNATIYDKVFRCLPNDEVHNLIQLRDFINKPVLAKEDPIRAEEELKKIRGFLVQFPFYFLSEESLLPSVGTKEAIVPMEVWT

Phospholipase D2 = Phospholipase D2 (Homo sapiens, UniProt O14939); assay: cellular phospholipase D2 inhibition IC50 – cell-based, dose response (AID 602147); format: functional;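 further: cellular assay in HEK293 cells overexpressing GFP-tagged PLD2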
Sequence of Phospholipase D2 (O14939 whole entry): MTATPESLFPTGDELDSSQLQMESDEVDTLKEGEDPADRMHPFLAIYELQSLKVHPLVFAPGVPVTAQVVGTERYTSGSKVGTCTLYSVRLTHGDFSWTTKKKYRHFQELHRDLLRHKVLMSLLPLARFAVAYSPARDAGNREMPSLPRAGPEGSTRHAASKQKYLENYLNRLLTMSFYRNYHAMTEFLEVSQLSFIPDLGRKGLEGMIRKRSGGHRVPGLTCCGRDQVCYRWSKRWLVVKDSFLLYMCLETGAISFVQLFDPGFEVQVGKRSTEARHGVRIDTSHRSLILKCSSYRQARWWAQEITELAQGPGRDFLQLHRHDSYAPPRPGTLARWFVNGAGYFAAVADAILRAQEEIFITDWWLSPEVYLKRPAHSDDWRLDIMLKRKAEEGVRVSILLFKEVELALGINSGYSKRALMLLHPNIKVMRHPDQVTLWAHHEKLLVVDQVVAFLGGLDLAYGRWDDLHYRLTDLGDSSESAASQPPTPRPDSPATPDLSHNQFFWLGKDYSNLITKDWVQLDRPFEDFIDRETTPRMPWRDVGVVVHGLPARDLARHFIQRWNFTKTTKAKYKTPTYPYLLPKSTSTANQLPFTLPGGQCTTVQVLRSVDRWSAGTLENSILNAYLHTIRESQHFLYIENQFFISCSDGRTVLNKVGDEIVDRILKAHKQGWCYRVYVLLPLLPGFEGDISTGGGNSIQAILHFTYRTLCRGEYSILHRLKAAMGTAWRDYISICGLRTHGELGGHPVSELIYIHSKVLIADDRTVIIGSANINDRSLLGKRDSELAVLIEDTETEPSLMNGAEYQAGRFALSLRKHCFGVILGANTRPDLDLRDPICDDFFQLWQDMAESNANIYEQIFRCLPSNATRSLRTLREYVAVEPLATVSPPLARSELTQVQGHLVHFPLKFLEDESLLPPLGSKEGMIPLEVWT

Sequence of Peroxisome proliferator-activated receptor gamma/Nuclear receptor coactivator 2 (P37231 whole entry, the tested form may be a part): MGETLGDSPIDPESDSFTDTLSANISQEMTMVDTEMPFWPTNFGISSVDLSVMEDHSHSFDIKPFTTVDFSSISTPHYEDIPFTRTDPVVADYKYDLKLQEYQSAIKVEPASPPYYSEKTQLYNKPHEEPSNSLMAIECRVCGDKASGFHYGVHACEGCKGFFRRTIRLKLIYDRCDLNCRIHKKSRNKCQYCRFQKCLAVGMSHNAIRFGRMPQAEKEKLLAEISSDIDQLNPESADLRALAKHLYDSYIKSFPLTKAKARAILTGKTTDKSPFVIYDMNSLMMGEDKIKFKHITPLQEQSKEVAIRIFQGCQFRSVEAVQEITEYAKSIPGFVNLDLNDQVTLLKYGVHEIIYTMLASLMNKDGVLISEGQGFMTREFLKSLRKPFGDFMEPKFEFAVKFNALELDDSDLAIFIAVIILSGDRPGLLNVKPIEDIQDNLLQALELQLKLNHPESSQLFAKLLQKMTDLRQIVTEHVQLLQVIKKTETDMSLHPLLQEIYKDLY
Sequence of Peroxisome proliferator-activated receptor gamma/Nuclear receptor coactivator 2 (Q15596 whole entry, further chain, the tested form may be a part): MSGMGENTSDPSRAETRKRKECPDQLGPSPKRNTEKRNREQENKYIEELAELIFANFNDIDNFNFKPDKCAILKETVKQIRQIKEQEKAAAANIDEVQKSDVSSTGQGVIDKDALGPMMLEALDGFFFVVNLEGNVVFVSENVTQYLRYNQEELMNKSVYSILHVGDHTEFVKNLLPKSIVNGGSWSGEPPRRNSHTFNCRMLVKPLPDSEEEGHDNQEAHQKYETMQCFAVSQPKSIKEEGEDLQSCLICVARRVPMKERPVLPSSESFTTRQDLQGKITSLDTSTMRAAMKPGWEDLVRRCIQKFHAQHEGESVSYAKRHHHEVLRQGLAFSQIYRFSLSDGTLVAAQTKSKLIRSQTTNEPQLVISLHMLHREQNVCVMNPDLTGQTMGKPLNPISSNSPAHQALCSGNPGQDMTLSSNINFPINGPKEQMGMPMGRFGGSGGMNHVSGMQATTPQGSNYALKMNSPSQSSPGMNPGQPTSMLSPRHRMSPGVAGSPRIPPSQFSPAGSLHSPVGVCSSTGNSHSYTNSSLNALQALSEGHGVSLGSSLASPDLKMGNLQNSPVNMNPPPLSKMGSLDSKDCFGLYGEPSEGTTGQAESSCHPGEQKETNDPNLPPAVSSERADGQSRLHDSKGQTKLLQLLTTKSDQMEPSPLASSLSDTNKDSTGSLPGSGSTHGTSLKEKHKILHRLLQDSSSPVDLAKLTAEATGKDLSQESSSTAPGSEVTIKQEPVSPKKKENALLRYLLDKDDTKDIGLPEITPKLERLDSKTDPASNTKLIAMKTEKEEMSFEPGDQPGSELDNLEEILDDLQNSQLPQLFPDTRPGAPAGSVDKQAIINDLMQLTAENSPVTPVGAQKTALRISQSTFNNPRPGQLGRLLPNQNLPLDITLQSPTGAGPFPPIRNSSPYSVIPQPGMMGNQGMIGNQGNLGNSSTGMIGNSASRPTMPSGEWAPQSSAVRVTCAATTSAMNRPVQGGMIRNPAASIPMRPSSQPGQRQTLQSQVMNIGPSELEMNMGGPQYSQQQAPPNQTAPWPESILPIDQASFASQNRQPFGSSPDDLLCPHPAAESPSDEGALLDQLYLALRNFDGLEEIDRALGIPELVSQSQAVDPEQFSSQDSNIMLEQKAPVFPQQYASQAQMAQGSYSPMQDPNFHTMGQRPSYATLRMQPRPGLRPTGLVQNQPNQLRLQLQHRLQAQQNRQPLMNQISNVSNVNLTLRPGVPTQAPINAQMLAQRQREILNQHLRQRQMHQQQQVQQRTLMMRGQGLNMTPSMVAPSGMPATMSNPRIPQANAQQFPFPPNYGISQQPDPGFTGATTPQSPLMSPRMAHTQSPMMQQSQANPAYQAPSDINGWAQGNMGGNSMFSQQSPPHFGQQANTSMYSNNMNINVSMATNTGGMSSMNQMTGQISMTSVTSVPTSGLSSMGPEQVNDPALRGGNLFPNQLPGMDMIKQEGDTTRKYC
Sequence of Peroxisome proliferator-activated receptor gamma/Nuclear receptor coactivator 3 (P37231 whole entry): as the sequence (P37231 whole entry, the tested form may be a part) above
Sequence of Peroxisome proliferator-activated receptor gamma/Nuclear receptor coactivator 3 (Q9Y6Q9 whole entry, further chain): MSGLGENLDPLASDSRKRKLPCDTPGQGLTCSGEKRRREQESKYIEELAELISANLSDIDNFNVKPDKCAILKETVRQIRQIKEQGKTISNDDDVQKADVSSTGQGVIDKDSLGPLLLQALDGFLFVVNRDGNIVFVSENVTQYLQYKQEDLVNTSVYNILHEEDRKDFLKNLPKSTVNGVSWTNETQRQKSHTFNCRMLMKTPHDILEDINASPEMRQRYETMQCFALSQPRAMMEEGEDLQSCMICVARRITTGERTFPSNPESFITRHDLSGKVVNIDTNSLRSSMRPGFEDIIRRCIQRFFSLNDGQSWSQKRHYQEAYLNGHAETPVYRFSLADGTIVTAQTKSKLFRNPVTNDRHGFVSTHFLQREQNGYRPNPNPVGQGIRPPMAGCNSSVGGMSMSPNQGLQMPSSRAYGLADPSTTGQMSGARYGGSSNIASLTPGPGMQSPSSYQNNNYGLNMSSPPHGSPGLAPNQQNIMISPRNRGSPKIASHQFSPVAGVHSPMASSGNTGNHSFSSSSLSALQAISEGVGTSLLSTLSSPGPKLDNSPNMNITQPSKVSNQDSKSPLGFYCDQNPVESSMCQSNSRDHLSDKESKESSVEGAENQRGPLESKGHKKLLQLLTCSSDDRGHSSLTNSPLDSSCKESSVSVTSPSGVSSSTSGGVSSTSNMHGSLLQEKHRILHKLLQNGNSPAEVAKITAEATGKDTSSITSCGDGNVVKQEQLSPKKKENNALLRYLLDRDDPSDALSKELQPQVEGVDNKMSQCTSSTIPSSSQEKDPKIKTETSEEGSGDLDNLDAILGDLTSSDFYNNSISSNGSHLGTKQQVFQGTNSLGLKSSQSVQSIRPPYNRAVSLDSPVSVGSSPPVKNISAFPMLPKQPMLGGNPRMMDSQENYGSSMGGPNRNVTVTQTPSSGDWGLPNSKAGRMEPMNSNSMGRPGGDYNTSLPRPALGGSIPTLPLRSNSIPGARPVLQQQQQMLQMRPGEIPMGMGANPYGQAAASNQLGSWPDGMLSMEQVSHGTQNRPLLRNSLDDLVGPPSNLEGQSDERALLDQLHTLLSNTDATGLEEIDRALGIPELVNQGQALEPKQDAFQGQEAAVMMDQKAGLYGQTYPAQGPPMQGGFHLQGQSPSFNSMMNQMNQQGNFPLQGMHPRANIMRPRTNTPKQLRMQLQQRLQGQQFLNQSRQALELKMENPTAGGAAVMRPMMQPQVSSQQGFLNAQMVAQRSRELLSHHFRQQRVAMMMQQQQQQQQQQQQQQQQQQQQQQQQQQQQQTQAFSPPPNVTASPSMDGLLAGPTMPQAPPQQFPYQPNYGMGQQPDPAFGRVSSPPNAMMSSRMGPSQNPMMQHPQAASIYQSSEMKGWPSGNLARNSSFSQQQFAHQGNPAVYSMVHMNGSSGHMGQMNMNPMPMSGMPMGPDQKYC

`Cc1sc2ncnc(NCC(c3ccccc3)N(C)C)c2c1C` (stereo not drawn) was tested, and the EC50 [1] was 0.237 µM (active).

In the case of `CCCCC(=O)Nc1ccc(C(=O)N2CCCC(C(=O)OCC)C2)cc1` (stereo not drawn), the EC50 [2] is reported as 5.72 µM (active).

With `COc1ccc(C2C(C(=O)c3ccco3)=C(O)C(=O)N2c2nnc(C)s2)cc1` (stereo not drawn) the EC50 [3] was > 79.4 µM (not active), the EC50 [4] was 18.7 µM (not active) and the EC50 [5] was 109 µM (active). The EC50 [6] was 216 µM (active) and the EC50 [7] was 19.8 µM (inactive).

With `COC(=O)c1c(N=C(S)Nc2ccc(CC(=O)O)cc2)sc(C)c1C` the EC50 [3] was > 79.4 µM (not active), the EC50 [4] was 9.39 µM (active) and the EC50 [7] was 13.3 µM (inactive).

`C[C@@H](CN1CCC2(CC1)C(=O)NCN2c1ccc(F)c(F)c1)NC(=O)c1cnc2ccccc2c1` was tested, and the IC50 (Phospholipase D1) was 0.016 µM (active) and the IC50 (Phospholipase D2) was 0.076 µM (active).

For `CC(C)[C@@H](CN1CCC2(CC1)C(=O)NCN2c1ccccc1)NC(=O)c1cc2ccccc2[nH]1`, the IC50 (Phospholipase D1) was 0.007 µM (active) and the IC50 (Phospholipase D2) was 0.029 µM (active).

In the case of `Cc1nc(NCC(c2ccccc2)N(C)C)c2c(C)c(C)sc2n1` (stereo not drawn), the EC50 [1] is reported as 0.335 µM (active).

With `C=CCn1c(=S)[nH]c2scc(-c3cccs3)c2c1=O` the EC50 [3] was > 79.4 µM (not active), the EC50 [4] was 5.27 µM (active) and the EC50 [7] was 4.03 µM (active).

Reference: ChEMBL document CHEMBL1201862, “PubChem BioAssay data set” (2004)
